The subject of the assay is L. donovani-infected THP-1 macrophages, intracellular amastigote imaging. The assay is described as follows: antileishmanial activity in infected THP-1 macrophages – imaging, THP-1 host macrophages, host toxicity (AID 1159564).
[1] abbreviates: measured here: THP-1 host cell toxicity.
Setting [2] is: measured here: amastigotes per macrophage.

pIC50: −log10 of the molar value. Active and inactive are the calls of the source. How the calls were made is not given here.

With `COc1ccc(C(=O)Nc2c(C)nn(COc3cccc(C(F)(F)F)c3)c2C)cc1`, the IC50 (commonly the concentration at which inhibition is half-maximal) was > 50 µM (inactive). Further, the negative-log IC50 (pIC50) – broadly, the IC50 on a negative log10 scale, so that one unit is a factor of ten – under setting [1] was 4.49. The pIC50 under setting [2] was below 4.30.

`CC(C)c1sc(Cl)nc1C(=O)NCCc1nc(C(=O)Nc2ccc3c(c2)OCO3)cs1`: the pIC50 was 5.30. The same molecule had a negative-log IC50 (pIC50) under setting [1] below 4.30. Further, the pIC50 under setting [2] was 5.60.

As for `Cc1c(C(C)NC(=O)Nc2cccc(Cl)c2)sc2ncnn12` (stereo unspecified), the IC50 is > 50 µM (inactive). The pIC50 under setting [1] was below 4.30. This molecule also gave a pIC50 under setting [2] of 5.70.

`CC(C)(C)C(=O)NCCc1csc(-c2ccc(F)cc2)n1`: the IC50 is > 50 µM (inactive). The pIC50 under setting [1] is below 4.30. This molecule also showed a pIC50 under setting [2] below 4.30.

As for `O=C(CSc1nnc2ccc(-c3ccc(F)cc3)nn12)N1CCCCC1`, the IC50 was > 50 µM (inactive). Besides, under setting [1], the pIC50 was 5.20. The molecule also showed a pIC50 under setting [2] below 4.30.

`COCCn1cnc2cc(NC(=O)C3CCCCC3)cc(C(=O)N3CCc4sccc4C3)c21`: the IC50 is > 50 µM (inactive). For the same molecule, the pIC50 under setting [1] was below 4.30. The same molecule gave a pIC50 under setting [2] below 4.30.

As for `Cc1cccc(NS(=O)(=O)c2ccc3c(c2)C(=O)c2cc(S(=O)(=O)Nc4cccc(C)c4C)ccc2-3)c1C`, the IC50 is > 50 µM (inactive). The pIC50 under setting [1] was below 4.30. Under setting [2], this molecule gave a negative-log IC50 (pIC50) below 4.30.

For `COc1ccc(C(=O)[C@H]2C[C@@H]2CN(Cc2ccccn2)Cc2ccccn2)cc1`, the pIC50 is 5.80. Besides, under setting [1], the pIC50 was below 4.30. The pIC50 under setting [2] was 5.89.

On to `CCOc1ccc(NC(=O)C=Cc2ccc(CC)o2)cc1`, for which the negative logarithm of the IC50 (pIC50) is 4.30. For the same molecule, under setting [1], the pIC50 is 4.70. The same molecule had a pIC50 under setting [2] of 4.60.

`O=C(NCCCn1cnc2ccccc21)c1ccc(NC(=O)c2ccco2)cc1`: the IC50 was > 50 µM (inactive). Under setting [1], this molecule gave a pIC50 below 4.30. The same molecule gave a negative logarithm of the IC50 (pIC50) under setting [2] of 4.89.

Turning to `COCc1cc(Nc2ccc(Cl)cc2)nc(-c2ccccn2)n1`, the pIC50 is 5.89. The molecule also gave a pIC50 under setting [1] of 4.70. Also, under setting [2], the pIC50 was 6.10.

As to `O=C(CN1CCC2(O)CCCCC2C1c1ccc2c(c1)OCO2)Nc1ccc(Cl)cc1Cl` (stereo unspecified), the pIC50 was 5.49. The molecule further gave a pIC50 under setting [1] below 4.30. This molecule gave a pIC50 under setting [2] of 5.89.

For `CC1CCCCN1C(=O)NCCc1coc(-c2ccc(F)cc2)n1` (stereo unspecified), the IC50 was > 50 µM (inactive). In addition, the pIC50 under setting [1] is below 4.30. The same molecule showed a pIC50 under setting [2] below 4.30.

For `CC(C)(C)C(=O)Nc1cc(C2CC2)nn1-c1nc2c(c(=O)[nH]1)CCCC2`, the negative logarithm of the IC50 (pIC50) is 5.30. This molecule also had a pIC50 under setting [1] of 5.10. Further, the pIC50 under setting [2] was 5.70.

Take `CC(C)CC(=O)NC(c1cccs1)c1ccc2cccnc2c1O` (stereo unspecified): the pIC50 is 5.10. Moreover, under setting [1], the pIC50 is 5.80. For the same molecule, the pIC50 under setting [2] was 5.49.

Consider `NC(=O)c1ccsc1NC(=O)c1ccc([N+](=O)[O-])s1`, for which the pIC50 is 5.80. Under setting [1], this molecule showed a pIC50 of 4.89. The molecule further gave a pIC50 under setting [2] of 5.89.

Regarding `COc1ccc2ncc(=O)n(CCN3CCOC(CNCc4ccc(C(F)(F)F)cc4F)C3)c2n1` (stereo unspecified), the IC50 is > 50 µM (inactive). This molecule also showed a pIC50 under setting [1] below 4.30. Under setting [2], this molecule showed a pIC50 below 4.30.

Consider `O=C(Nc1nc(-c2ccccn2)cs1)c1ccc(S(=O)(=O)N2CCCCC2)cc1`, for which the negative-log IC50 (pIC50) was 5.89. In addition, the negative logarithm of the IC50 (pIC50) under setting [1] was 4.89. Also, the negative logarithm of the IC50 (pIC50) under setting [2] was 6.00.

For the molecule `O=C(Cn1cnc([N+](=O)[O-])n1)Nc1ccc(Cl)cc1C(=O)c1ccccc1`, the IC50 is > 50 µM (inactive). The pIC50 under setting [1] is below 4.30. In addition, the pIC50 under setting [2] was below 4.30.

Take `CS(=O)(=O)c1ccccc1C(=O)N(Cc1ccccc1)c1ccccc1`: the IC50 is > 50 µM (inactive). The pIC50 under setting [1] is below 4.30. The molecule further had a pIC50 under setting [2] of 4.80.

For `Cc1ccc(Nc2nc(N)nc(CNC(c3nc4ccccc4[nH]3)C(C)C)n2)cc1` (stereo unspecified), the negative-log IC50 (pIC50) was 5.70. The pIC50 under setting [1] was 4.60. Moreover, the negative logarithm of the IC50 (pIC50) under setting [2] was 5.89.

For the molecule `O=C(Cn1cnc2c(-c3ccccc3)csc2c1=O)N1CCCCC1`, the IC50 is > 50 µM (inactive). This molecule also showed a negative logarithm of the IC50 (pIC50) under setting [1] below 4.30. Besides, under setting [2], the negative-log IC50 (pIC50) is below 4.30.

For the molecule `O=C(CCCn1cnc([N+](=O)[O-])n1)Nc1cccc(Cl)c1`, the IC50 is > 50 µM (inactive). The same molecule gave a pIC50 under setting [1] below 4.30. Also, the pIC50 under setting [2] was below 4.30.

As to `Cc1cn[nH]c1C1CCCN(Cc2nc3ccccc3n2C)C1` (stereo unspecified), the pIC50 is 5.40. Also, under setting [1], the pIC50 was 4.70. Under setting [2], this molecule had a pIC50 of 5.49.

In the case of `COc1ccc(Nc2nccc(N(C)c3n[nH]c4c(F)cccc34)n2)cc1S(C)(=O)=O`, the pIC50 was 5.60. The negative-log IC50 (pIC50) under setting [1] is 5.00. Also, the pIC50 under setting [2] was 6.00.

As for `N#Cc1ccc(C(=O)Nc2cccc(-c3cccc(CN4CCC(O)CC4)c3)c2)cc1`, the pIC50 is 4.80. Moreover, the pIC50 under setting [1] was 4.80. Under setting [2], this molecule had a pIC50 of 5.10.

`O=C(Cn1cnc2cc([N+](=O)[O-])ccc2c1=O)NCCc1ccc(Cl)cc1Cl`: the IC50 is > 50 µM (inactive). This molecule also showed a pIC50 under setting [1] below 4.30. This molecule showed a pIC50 under setting [2] below 4.30.

Source of the values: PubChem BioAssay AID1159564 (GlaxoSmithKline (GSK), 2015).
